We go through 11 compounds from patent US20220110847A1, “USE OF COOLING MATERIALS FOR THE REDUCTION OR INHIBITION OF SALTINESS IN ORALLY ADMINISTERED, IMBIBED OR INGESTED CONSUMER PRODUCTS” (TAKASAGO INTERNATIONAL CORPORATION, priority 2019, published 2022).

The assay in a line: Saltiness rating of toothpaste samples by an expert panel. In kind it is in vivo. The note with it: for perceived salty taste compared with both the Control and the other tested cooling materials: cooling material added to commercial toothpaste with approximately 50% sodium bicarbonate, expert panel; for Average RATING (saltiness): saltiness scale of 1 (less salty) to 7 (most salty), 7 evaluators, cooling material at 0.2 % (table) in commercial toothpaste with approximately 50% by weight sodium bicarbonate, Control 6.43. The procedure: A sample of a commercially available toothpaste containing approximately 50% by weight of sodium bicarbonate was used as a Control. […] All of the toothpaste samples, including the Control, were evaluated by an expert panel comprised of 4 Flavorist(s), 2 Flavor Lab Managers, and 1 Flavor Lab Technician. Each sample was assigned a number by each evaluator to indicate saltiness, using a saltiness scale of 1(less salty) to 7(most salty).

Turning to `CC1CCC(C(C)(C)O)C(O)C1` (centres unmarked) [p-menthane-3,8-diol], the “perceived salty taste compared with both the Control and the other tested cooling materials” value is “less salty taste”; the “Average RATING (saltiness)” value came out at 5.86.

For `CC(C)[C@@H]1CC[C@@H](C)C[C@H]1OCC(O)CO` (stereo partly drawn) [3-L-menthoxypropan-1,2-diol], the “perceived salty taste compared with both the Control and the other tested cooling materials” value is listed as “less salty taste”; the “Average RATING (saltiness)” value came out at 3.00.

Take `CC1CCC(C(C)C)C(OC(=O)C(C)O)C1` (centres unmarked) [Menthyl Lactate, reference compound]: the “Average RATING (saltiness)” value was found to be 6.43.

As to `CCNC(=O)C1CC(C)CCC1C(C)C` (centres unmarked) [N-ethyl-5-methyl-2-propan-2-ylcyclohexane-1-carboxamide, reference compound], the “Average RATING (saltiness)” value was 6.57.

As to `CNC(=O)C(C)(C(C)C)C(C)C` [2-isopropyl-N,2,3-trimethylbutyramide, reference compound], the “Average RATING (saltiness)” value came out at 6.

`COc1ccc(NC(=O)C2CC(C)CCC2C(C)C)cc1` (centres unmarked) [N-(4-methoxyphenyl)-p-menthanecarboxamide]: the “perceived salty taste compared with both the Control and the other tested cooling materials” value was “less salty taste”; the “Average RATING (saltiness)” value is 5.57.

With `CCOC(=O)CNC(=O)C1CC(C)CCC1C(C)C` (centres unmarked) [N-[(ethoxycarbonyl)methyl)-p-menthane-3-carboxamide, reference compound], the “Average RATING (saltiness)” value is 6.43.

`CC1CCC(C(C)C)C(OCCO)C1` (centres unmarked) [hydroxyethyl-menthyl ether]: the “perceived salty taste compared with both the Control and the other tested cooling materials” value is “less salty taste”; the “Average RATING (saltiness)” value is 5.57.

Take `C=C(C)[C@@H]1CC[C@@H](C)C[C@H]1O` [1-isopulegol, reference compound]: the “Average RATING (saltiness)” value came out at 6.29.

With `CC(O)CC(=O)O[C@@H]1C[C@H](C)CC[C@H]1C(C)C` (stereo partly drawn) [L-menthyl-3-hydroxybutanoate], the “perceived salty taste compared with both the Control and the other tested cooling materials” value is recorded as “less salty taste”; the “Average RATING (saltiness)” value was 3.86.

On to `CC(=O)C1CCC(C)CC1O` (centres unmarked) [1-(2-hydroxy-4-methylcyclohexyl)-ethanone], for which the “perceived salty taste compared with both the Control and the other tested cooling materials” value is given as “less salty taste”; the “Average RATING (saltiness)” value stood at 2.43.
